Laboratory results: US5322858A, “N,N'-substituted imidodicarbonimidic diamides derived from hydroxylamines” (Jacobus Pharmaceutical Co. Inc., priority 1992, dated 1994)
≈ marks a conversion by molar mass, not a printed value.

Columns and labels:
Pneumocystis carinii [1] = experiment: Prevention of Pneumocystis carinii infection in immunosuppressed rats; assay type: in vivo; conditions: 125 mg/kg daily
Protocol: In this method rats are immunosuppressed with high doses of glucocorticosteroids while being protected from bacterial infection by concurrent administration of the antibiotic tetracycline. In a standard evaluation animals are immunosuppressed with steroids and various doses of test compounds are administered for six weeks during which time unprotected animals will develop pneumocystis pneumonitis. The percentage of animals free of the disease represents the effectiveness of a selected dose of test drug.
A customary method to produce pneumocystis in the animals is to administer 2 mg of dexamethasone and 50 mg tetracycline hydrochloride per liter of drinking water. The test compounds are integrated in the food.

M. avium (MAC) = experiment: Broth dilution MIC against Mycobacterium avium complex isolates; assay type: cell-based; conditions: 168 h
Protocol: (§1) Testing of new drugs for activity against Mycobacterial infections is carried out in vitro and in vivo in well defined laboratory procedures which have been widely published. The method used to test for biological activity against growing Mycobacterium avium complex (MAC), Mycobacterium tuberculosis (MTB) and Mycobacterium kanasii (MK) are described by A. H. Gonzalez et al. in J. Antimicrob. Chemother. 1989, 24:19-22; S. Majumder and M. H. Cynamon, Amer. Soc. for Microbiology Mtgs, U-4, May 1992, abstract.
(§2) Activity in vitro was determined against clinical isolates of MAC, MTB and MK using a broth dilution method. Mycobacteria were grown for several days in 7H10 broth, ph 6.6, with 10% OADC enrichment and 0.05% Tween 80. Serial two-fold dilutions of antimicrobial drugs were prepared in 7H10 broth at 128 μg/ml and less. Cultures containing a final concentration of approximately 2.5×10^4 to 6.3×10^5 CFU/ml were incubated on a rotary shaker at 37° C. for 7 days and read where the minimum inhibitory concentration was defined as the MIC at the lowest concentration without visual turbidity. JPC7766 in these studies was compared to known active antimicrobial drugs Proguanil (PG), Cycloguanil (CG), Sulfamethazine (SM) and/or Dapsone (DDS).

Pneumocystis carinii [2] = conditions: 125 mg/kg; cited from earlier work
P. berghei = P. berghei infection in mice, injected vs. oral doses, 50% cure (Table 2)
Description: Comparative tests in vivo in mice against Plasmodium have been carried out. […] Premature deaths of animals (earlier than five days post infection) are considered as indications of toxicity.
These tests systems are described in detail in publications by L. Rane and D. S. Rane, 9th Int. […] Trop. Med. Malaria. (1973) 1:281 (#406) and (2) T. S. Osdedne, P. B. Russell and L. Rane, J. Med. Chem. 1967. 10:431.
In this methodology, groups of 5 or 10 mice are infected with a standard inoculum of a blood-induced P. berghei infection and are treated with a single subcutaneous dose ([…]) of test drug suspended in peanut oil or a single oral dose of test drug suspended in hexamethyl cellulose and Tween. The animals are then observed for a maximum of thirty days. […] Animals surviving for thirty days are considered cured.

M. kanasii (MK) = experiment: Broth dilution MIC against M. kanasii isolate; assay type: cell-based; conditions: 168 h
Protocol: as §1, §2

M. tuberculosis (MTB) = experiment: Broth dilution MIC against M. tuberculosis isolates; assay type: cell-based; conditions: Mycobacterium tuberculosis, 168 h
Protocol: as §1, §2

Compound	MIC (M. avium (MAC); isolate MAC 101)	MIC (M. avium (MAC); isolate MAC FAR)	MIC (M. avium (MAC); isolate MAC LPR)	MIC (M. kanasii (MK))	MIC (M. tuberculosis (MTB); isolate MTB 311)	MIC (M. tuberculosis (MTB); H37RV, isolate MTB H37 Rv)	further results
Nc1ccc(S(=O)(=O)c2ccc(N)cc2)cc1 [Dapsone]	16 µg/mL (≈ 64.4 µM)	64 µg/mL (≈ 258 µM)	32 µg/mL (≈ 129 µM)	–	–	–	Efficacy (Pneumocystis carinii [1]): 100%; # infected (Pneumocystis carinii [1]; infected/treated): 0/10; protection from pneumocystis (Pneumocystis carinii [2]): fully effective
[H]/N=C(\N/C(=N/[H])Nc1ccc(Cl)cc1)NC(C)C [Proguanil]	> 128 µg/mL	64 µg/mL (≈ 252 µM)	128 µg/mL (≈ 504 µM)	–	–	–	Toxicity (P. berghei; oral (PO), @ >160 mg/kg): Toxic; 50% cures; oral PO ED-50 (P. berghei; single oral dose): No Cures; 50% cure; injected SQ ED-50 (P. berghei; subcutaneous, in peanut oil): NO CURES
CC1(C)N=C(N)N=C(N)N1c1ccc(Cl)cc1 [Cycloguanil]	–	–	> 128 µg/mL	64 µg/mL (≈ 254 µM)	64 µg/mL (≈ 254 µM)	64 µg/mL (≈ 254 µM)	–
Cc1cc(C)nc(NS(=O)(=O)c2ccc(N)cc2)n1 [Sulfamethazine]	> 128 µg/mL	16 µg/mL (≈ 57.5 µM)	32 µg/mL (≈ 115 µM)	64 µg/mL (≈ 230 µM)	64 µg/mL (≈ 230 µM)	64 µg/mL (≈ 230 µM)	–
CC1(C)N=C(N)N=C(N)N1OCCCOc1cc(Cl)c(Cl)cc1Cl [WR99210]	–	–	–	–	–	–	ED50 (P. berghei; Plasmodium berghei, in Mus musculus, sc, read-out: 50% cure, injected SQ ED-50): 245 mg/kg; Cures (P. berghei; oral (PO), @ 640 mg/kg): No Cures
